# From patent US20140314881A1 (priority 2009, published 2014)
# Where two headings read alike, the source gives them in different places.
# What was measured:
# [1] = Creatinine and AST levels following brain death in swine with or without ENO (Example 2); format: in vivo
# Experimental: The levels of creatinine and aspartate aminotransferase (AST) were monitored in two groups of swine following brain death. The level of creatinine is indicative of kidney function. The level of AST is indicative of liver function. For each groups a base line blood sample was taken, brain death was induced, and the second sample was taken after 12 h with or without 50 ppm ENO mixed into the ventilation circuit. […] AST increased in both groups but the magnitude of the increase with ENO was half that observed in the control group (35 to 79 U/l v. 30 to 145 U/l).
# [2] = test system: red blood cell SNO-Hb; assay: Circulating SNO-Hb following brain death in swine ventilated with ENO (Example 1); format: in vivo; conditions: 12 hours after brain death
# Experimental: The level of circulating SNO-Hb following brain death in three groups of swine was measured. […] FIG. 1 is a bar graph illustrating the results of administering ENO to an organ after brain death.
# [3] = set-up: species or system human; conditions: in vivo
# [4] = Brain dead cat ventilated with ENO before kidney donation (Example 20); format: in vivo; conditions: Example 20: brain dead cat ventilated with oxygen and 50 ppm ENO, 24 hours
# Source text: A pet owner presents at a state veterinary college with her cat that was recently struck by car. […] The owner is informed that her cat is brain dead and then provided details about a feline kidney donation program—the owner agrees to have her pet's kidneys transplanted. The animal is intubated and ventilated with oxygen augmented with 50 ppm ENO to preserve organ physiologic status while potential recipients are identified. Two clients of the vet school who own cats with end-stage renal disease are contacted and are grateful for the opportunity to have their pets receive a healthy kidney.
# [5] = Physiological response of sheep to simulated altitude with or without ENO (Example 12); format: in vivo; conditions: simulated altitude −4,500 meters, inhalation of 50 ppm ENO
# [6] = ENO administration to organ donors before or during organ procurement (Examples 8-11); format: in vivo, human
# Experimental: A living kidney donor is administered ENO via inhalation during an open nephrectomy or as part of the insufflation gas during a laparoscopic donor nephrectomy. ENO is provided in pressurized cylinders for delivery through the ventilation or insufflation devices. The amount of ENO delivered can be titrated based on blood gas or organ blood flow changes.
# A catheter is placed in a large vein of a brain dead patient. The catheter contains a cylindrical bundle of microporous hollow fiber membranes woven into a mat at the end. The catheter is placed within the central venous blood stream in the primary vein that returns blood to the heart. […] A respiratory system is activated and oxygen with 50 ppm ENO flows from a console outside the patient, through the catheter and through the hollow fibers. The fiber membranes are permeable to gases. As a result, oxygen and ENO diffuses into the blood stream from the fibers, while carbon dioxide (CO2) diffuses out of the blood stream into the fibers. Excess O2 and CO2 are removed back through the catheter to the external console.
# Patient on respiratory is pronounced dead. Creatine phosphokinase (CPK) leak is indicative of cardiac injury. Patient is started on ENO 20 ppm and further CPK leak is prevented.
# Patient dies. […] Kidney function is preserved over durations usually associated with decline in function.
# [7] = Example 11: deceased patient, ENO 20 ppm
smiles,measurement,setting,value
"CCON=O [ENO, ethyl nitrite]","AST level, second sample after 12 h","[1]; 50 ppm ENO in ventilation circuit, 12 h after brain death",79 U/l
same,creatinine level (kidney function),"[1]; 50 ppm ENO in ventilation circuit, 12 h after brain death vs base line",unchanged
same,magnitude of the AST increase relative to control group,"[1]; 50 ppm ENO, 12 h after brain death",half
same,"AST level, base line sample","[1]; ENO group, base line before brain death",35 U/l
same,change from baseline in red blood cell SNO-Hb concentration,[2]; swine ventilated with 20 ppm ENO,an increase in SNO-Hb
same,change from baseline in red blood cell SNO-Hb concentration,[2]; swine ventilated with 50 ppm ENO,an increase in SNO-Hb
same,breathing disorder at altitude,[3],not exacerbated
same,dyspnea during commercial flight,[3],breathing normally
same,occurrence of Acute Mountain Sickness,[3],No individuals experiences Acute Mountain Sickness
same,signs of altitude sickness at altitude (prevention),[3],no sign of altitude sickness
same,symptoms of altitude mountain sickness,[3],abate
same,symptoms of high altitude cerebral edema,[3]; iv,abate
same,symptoms of high altitude pulmonary edema,[3]; iv,abate
same,symptoms of altitude mountain sickness,[3]; po,abate
same,organ function of donor,[4],maintained organ function
same,"cardiac output, hypoxia/high-altitude-induced increase",[5],reducing
same,"pulmonary arterial pressure (PAP), hypoxia/high-altitude-induced increase",[5],reducing
same,"pulmonary vascular resistance (PVR), hypoxia/high-altitude-induced increase",[5],reducing
same,systemic vascular resistance (SVR),[5],restoring SVR
same,kidney transplantation outcome,"[6]; Example 8: living kidney donor, ENO via inhalation or insufflation gas during nephrectomy",successfully transplanted
same,liver transplantation outcome,"[6]; Example 9: brain dead patient, oxygen with 50 ppm ENO via intravascular catheter",successfully transplanted
same,heart transplantation outcome,"[6]; Example 10: ENO 20 ppm, heart harvested 24 hours later",successfully transplanted
same,creatine phosphokinase (CPK) leak (cardiac injury),"[6]; Example 10: patient pronounced dead, ENO 20 ppm",prevented
same,graft rejection,[6]; [7],neither early nor late rejection is observed
same,kidney transplantation outcome,[6]; [7],successfully transplanted
same,renal function,[6]; [7],does not decline
